The values below come from patent publication US20030078237A1, “Phenanthryl piperazinyl dicarboxylic acids as selective nmda receptor modulating agents” (priority 1999, published 2003).

One test deals with NMDA receptors. In words: NMDA-induced depolarizations of motoneurones, hemisected neonatal rat spinal cord. In kind it is cell-based. As for the experimental part: (§1) Hemisected neonatal rat spinal cords (Evans and Watkins, European Journal of Pharmacology, 50: 123-129, 1978) were isolated and wire electrodes were placed under the exposed ventral roots. The preparation was superfused with standard Ringers (containing in mM: NaCl 118, NaHCO3 25, KCl 3, CaCl2 2.5, D-glucose 12 and gassed with 95% O2/5% CO2). To record agonist-induced responses, 0.1 μM tetrodotoxin was included to block synaptic transmission and associated depolarizations. Agonist (N-methyl-D-aspartate (NMDA)) was superfused for 60-120 seconds at a rate of 1 ml/minute. The relative positive potentials recorded by the distal (to spinal cord) wire electrode compared to the proximal electrode was taken as an indication of motor neuron cell body depolarization. Antagonism of agonist-induced responses was observed by co-application of the antagonist PPDA.
(§2) AMPA and kainate are protypical agonists which show selectivity for, and predominantly activate, the AMPA and kainate subtypes of glutamate receptors. In additional assays, PPDA was tested at a concentration of 5 μM (which is approximately 20 times the Kd value for the antagonism of NMDA receptors) as an antagonist of AMPA (6 μM)-, kainate (50 μM)- and NMDA (50 μM)-induced depolarizations (approximate EC50 concentrations used) on neonatal rat motoneurones.

In test [1] the test system is AMPA subtype of glutamate receptors. In words: AMPA-induced depolarizations on neonatal rat motoneurones. In kind it is cell-based. The conditions noted are these: PPDA 5 μM, AMPA 6 μM. The protocol: as §1, §2
Test [2] concerns kainate subtype of glutamate receptors. In words: kainate-induced depolarizations on neonatal rat motoneurones. In kind it is cell-based. The conditions noted are these: PPDA 5 μM, kainate 50 μM. As for the experimental part: as §1, §2
The test system of test [3] is Group I metabotropic glutamate (mGlu) receptor. The test can be described thus: ACPD-induced depolarizations on neonatal rat motoneurones. In kind it is cell-based. Conditions: PPDA 50 μM; ACPD 30 μM. The protocol: as §1
(§3) PPDA (50 μM) also had no effect on depolarizations following administration of (1S,3R)-1-amino-1,3-cyclopentane dicarboxylic acid (ACPD; 30 μM). APCD is a Group I metabotropic glutamate (mGlu) receptor agonist. The recited values were determined by using quantitative receptor autoradiography of [^3H]-glutamate labeled NMDA receptors in rat brain tissue sections.

Test [4] addresses T1, Native NMDA receptor, Medial Striatum (NR2B) (Rattus norvegicus, UniProt Q00960).
T1 construct: Native NMDA Receptor Potency; from tissue; host or cells: rat brain sections, medial striatum
In words: quantitative receptor autoradiography of [3H]-glutamate labeled native NMDA receptors, medial striatum. In kind it is binding. The protocol:
as §3
(§4) The potency of PPDA for native NMDA receptors was also investigated in a Xenopus oocyte system.

Test [5] concerns the target T2, Native NMDA receptor, Cerebellum (NR2A) (Rattus norvegicus, UniProt Q00959).
T2 construct: Native NMDA Receptor Potency; from tissue; host or cells: rat brain sections, cerebellum
The test can be described thus: quantitative receptor autoradiography of [3H]-glutamate labeled native NMDA receptors, cerebellum NR2A. In kind it is binding. The protocol: as §3, §4

Test [6] has as its target T3, Native NMDA receptor, Cerebellum (NR2C) (Rattus norvegicus, UniProt Q00961).
T3 construct: Native NMDA Receptor Potency; from tissue; host or cells: rat brain sections, cerebellum
In words: quantitative receptor autoradiography of [3H]-glutamate labeled native NMDA receptors, cerebellum NR2C. In kind it is binding. As for the experimental part: as §3, §4

For test [7], the target named is Native NMDA receptor, Midline thalamus (NR2B/NR2D). In words: quantitative receptor autoradiography of [3H]-glutamate labeled native NMDA receptors, midline thalamus. In kind it is binding. The conditions noted are these: [3H]-glutamate autoradiography, rat brain sections; read-out: Ki, native NMDA receptor potency, Midline thalamus (NR2B/NR2D). The protocol:
as §3, §4

The target of test [8] is T4, NR1/NR2B (Rattus norvegicus, UniProt P35439+Q00960).
T4 construct: expressed in transfected cells; host or cells: Xenopus oocytes injected with in vitro transcribed RNA
In words: two-microelectrode voltage clamp of recombinant NMDA receptors in Xenopus oocytes, NR1/NR2B. In kind it is cell-based. The protocol: (§5) RNA translation and transcription in Xenopus oocytes and electrophysiological recordings were performed as previously described (Monaghan D T, Larson H (1997) J Pharmacol Exp Ther 280:614 -620). Plasmids were linearized with NotI (NR1a), EcoRI (NR2A, NR2C, and NR2D), or SalI (NR2B) and transcribed in vitro using the mMessage mMachine RNA polymerase transcription kit (Ambion, Austin, Tex.). NR1 a was mixed 1:3 with NR2A, NR2B, NR2C, or NR2D RNA, and 2-50 ng of this mixture was injected into oocytes. Agonist-evoked responses were measured using a standard two-microelectrode voltage clamp (model OC-725B Oocyte Clamp; Warner Instruments, Hamden, Conn.) at a holding potential of −60 mV. Glutamate (10 μM) and glycine (10 μM) were applied until stable plateau responses were obtained; (±)-cis-1-(phenanthren-2-yl-carbonyl)-piperazine-2,3-dicarboxylic acid (PPDA) (0.1, 0.3, 1, 3, 10, or 30 μM) was then applied until steady-state blockade was obtained, followed by antagonist washout and full agonist responses. Current responses were captured and analyzed with AxoData (Axon Instruments, Foster City, Calif.) and GraphPad Prism (ISI Software, San Diego, Calif.) software. Ki values were corrected for agonist affinity according to the Cheng-Prusoff equation. Data in Table 3 are expressed as mean Kl±SEM. […]

Test [9] deals with T5, NR1/NR2C (Rattus norvegicus, UniProt P35439+Q00961).
T5 construct: expressed in transfected cells; host or cells: Xenopus oocytes injected with in vitro transcribed RNA
In words: two-microelectrode voltage clamp of recombinant NMDA receptors in Xenopus oocytes, NR1/NR2C. In kind it is cell-based. The protocol: as §5

For test [10], the target named is T6, NR1/NR2D (Rattus norvegicus, UniProt P35439+Q62645).
T6 construct: expressed in transfected cells; host or cells: Xenopus oocytes injected with in vitro transcribed RNA
The test can be described thus: two-microelectrode voltage clamp of recombinant NMDA receptors in Xenopus oocytes, NR1/NR2D. In kind it is cell-based. The protocol: as §5

A further test has as its system native AMPA receptors. The test can be described thus: autoradiography, [3H]CNQX binding to native AMPA receptors. Conditions: PPDA 10 μM; 100 nM [3H]CNQX; n=3.
The subject of test [11] is native non-NMDA glutamate receptors ([3H]kainate binding). The test can be described thus: autoradiography, [3H]kainate binding. Conditions: PPDA 10 μM; 25 nM [3H]kainate; n=3.
Test [12] concerns the target T7, NR1/NR2A (Rattus norvegicus, UniProt Q00959).
T7 construct: expressed in transfected cells; host or cells: Xenopus oocytes injected with in vitro transcribed RNA
Conditions: recombinant, Xenopus oocytes; from Buller and Monaghan 1997, mean +/- SEM, n=4-6; cited from earlier work.

Test [13] concerns the target T8, NR1/NR2B (Rattus norvegicus, UniProt Q00960).
T8 construct: expressed in transfected cells; host or cells: Xenopus oocytes injected with in vitro transcribed RNA
Conditions: recombinant, Xenopus oocytes; from Buller and Monaghan 1997, mean +/- SEM, n=4-6; cited from earlier work.

Test [14] deals with T9, NR1/NR2C (Rattus norvegicus, UniProt Q00961).
T9 construct: expressed in transfected cells; host or cells: Xenopus oocytes injected with in vitro transcribed RNA
Conditions: recombinant, Xenopus oocytes; from Buller and Monaghan 1997, mean +/- SEM, n=4-6; cited from earlier work.

The target in test [15] is T10, NR1/NR2D (Rattus norvegicus, UniProt Q62645).
T10 construct: expressed in transfected cells; host or cells: Xenopus oocytes injected with in vitro transcribed RNA
Conditions: recombinant, Xenopus oocytes; from Buller and Monaghan 1997, mean +/- SEM, n=4-6; cited from earlier work.

Test [16] concerns the target T11, NR1/NR2A (Rattus norvegicus, UniProt P35439+Q00959).
T11 construct: expressed in transfected cells; host or cells: Xenopus oocytes injected with in vitro transcribed RNA
In words: two-microelectrode voltage clamp of recombinant NMDA receptors in Xenopus oocytes, NR1/NR2A. In kind it is cell-based. Conditions: NR1a co-expressed in Xenopus oocytes, mean +/- SEM. The protocol:
as §5

Like-named read-outs stand apart in the source and are kept apart here.

T10 sequence (Q62645 28-1323, other chains not shown): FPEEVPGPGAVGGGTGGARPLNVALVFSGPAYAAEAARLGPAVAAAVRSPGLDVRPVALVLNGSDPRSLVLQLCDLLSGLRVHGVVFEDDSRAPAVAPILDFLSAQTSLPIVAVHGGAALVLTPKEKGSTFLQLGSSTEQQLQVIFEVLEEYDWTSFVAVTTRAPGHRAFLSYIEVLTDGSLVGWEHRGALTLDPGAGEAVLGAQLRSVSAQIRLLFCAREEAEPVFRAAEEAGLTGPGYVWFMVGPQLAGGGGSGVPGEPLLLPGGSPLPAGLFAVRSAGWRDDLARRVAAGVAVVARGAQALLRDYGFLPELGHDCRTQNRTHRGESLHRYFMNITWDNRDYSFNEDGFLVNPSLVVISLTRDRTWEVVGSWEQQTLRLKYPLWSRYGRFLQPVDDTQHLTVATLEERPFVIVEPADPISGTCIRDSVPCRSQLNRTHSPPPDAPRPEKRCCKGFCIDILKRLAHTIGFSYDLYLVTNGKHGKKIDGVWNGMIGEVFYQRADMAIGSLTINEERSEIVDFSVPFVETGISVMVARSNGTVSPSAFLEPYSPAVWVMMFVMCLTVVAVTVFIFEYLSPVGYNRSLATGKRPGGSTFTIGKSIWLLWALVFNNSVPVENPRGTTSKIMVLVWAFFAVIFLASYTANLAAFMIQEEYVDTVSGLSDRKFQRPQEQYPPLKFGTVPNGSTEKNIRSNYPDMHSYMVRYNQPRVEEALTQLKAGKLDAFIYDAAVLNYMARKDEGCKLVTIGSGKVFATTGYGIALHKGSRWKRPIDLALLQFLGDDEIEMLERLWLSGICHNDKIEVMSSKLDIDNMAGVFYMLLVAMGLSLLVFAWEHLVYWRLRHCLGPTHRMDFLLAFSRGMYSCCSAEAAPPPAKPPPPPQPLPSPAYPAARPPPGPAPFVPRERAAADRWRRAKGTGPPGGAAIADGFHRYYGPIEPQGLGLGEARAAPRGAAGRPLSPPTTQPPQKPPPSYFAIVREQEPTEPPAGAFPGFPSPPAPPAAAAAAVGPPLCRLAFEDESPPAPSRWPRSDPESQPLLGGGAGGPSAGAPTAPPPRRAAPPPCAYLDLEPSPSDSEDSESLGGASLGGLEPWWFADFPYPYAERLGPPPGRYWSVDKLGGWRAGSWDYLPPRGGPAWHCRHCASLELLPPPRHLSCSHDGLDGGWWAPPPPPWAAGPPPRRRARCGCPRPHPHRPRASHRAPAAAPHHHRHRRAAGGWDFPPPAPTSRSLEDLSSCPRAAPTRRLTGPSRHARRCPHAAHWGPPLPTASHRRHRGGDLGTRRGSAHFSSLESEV
T6 sequence (Q62645 28-1323, other chains not shown): as above
T7 sequence (Q00959 23-1464, other chains not shown): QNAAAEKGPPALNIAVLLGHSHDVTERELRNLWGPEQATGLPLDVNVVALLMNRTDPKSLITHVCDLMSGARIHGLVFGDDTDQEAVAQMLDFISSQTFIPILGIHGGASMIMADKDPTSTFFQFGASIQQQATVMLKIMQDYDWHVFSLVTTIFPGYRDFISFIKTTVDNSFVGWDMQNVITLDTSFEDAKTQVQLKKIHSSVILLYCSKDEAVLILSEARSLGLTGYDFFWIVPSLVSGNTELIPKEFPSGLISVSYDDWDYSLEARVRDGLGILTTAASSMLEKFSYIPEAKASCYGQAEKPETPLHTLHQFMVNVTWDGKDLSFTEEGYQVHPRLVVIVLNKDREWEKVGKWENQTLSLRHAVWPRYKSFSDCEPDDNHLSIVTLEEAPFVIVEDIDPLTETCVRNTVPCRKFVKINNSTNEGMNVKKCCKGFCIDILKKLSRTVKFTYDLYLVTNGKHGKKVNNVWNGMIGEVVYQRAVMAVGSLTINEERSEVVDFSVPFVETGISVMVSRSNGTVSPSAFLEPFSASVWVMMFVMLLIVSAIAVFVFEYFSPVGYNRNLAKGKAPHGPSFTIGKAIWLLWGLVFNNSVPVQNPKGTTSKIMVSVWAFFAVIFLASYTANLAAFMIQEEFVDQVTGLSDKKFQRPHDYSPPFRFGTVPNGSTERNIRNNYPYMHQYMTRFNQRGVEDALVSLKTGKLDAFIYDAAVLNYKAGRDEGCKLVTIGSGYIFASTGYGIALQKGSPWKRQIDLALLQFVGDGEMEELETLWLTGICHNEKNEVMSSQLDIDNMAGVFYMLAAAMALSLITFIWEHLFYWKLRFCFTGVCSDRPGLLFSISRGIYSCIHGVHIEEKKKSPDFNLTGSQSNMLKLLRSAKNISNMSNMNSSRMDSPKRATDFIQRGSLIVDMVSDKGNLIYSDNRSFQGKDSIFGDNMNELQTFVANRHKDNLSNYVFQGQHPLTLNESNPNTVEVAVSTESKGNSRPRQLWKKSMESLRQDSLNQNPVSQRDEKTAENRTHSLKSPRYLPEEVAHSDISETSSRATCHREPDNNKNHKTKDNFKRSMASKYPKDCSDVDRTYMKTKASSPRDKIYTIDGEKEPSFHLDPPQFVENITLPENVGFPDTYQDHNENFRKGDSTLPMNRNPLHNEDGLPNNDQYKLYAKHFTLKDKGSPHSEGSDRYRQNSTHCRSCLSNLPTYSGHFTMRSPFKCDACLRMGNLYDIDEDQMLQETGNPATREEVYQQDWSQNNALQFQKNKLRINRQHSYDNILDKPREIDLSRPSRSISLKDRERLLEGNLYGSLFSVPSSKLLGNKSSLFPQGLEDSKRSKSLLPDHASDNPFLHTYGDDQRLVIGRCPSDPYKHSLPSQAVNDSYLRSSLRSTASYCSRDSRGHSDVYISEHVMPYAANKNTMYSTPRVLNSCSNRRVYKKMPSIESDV
T4 sequence (Q00960 27-1482, other chains not shown): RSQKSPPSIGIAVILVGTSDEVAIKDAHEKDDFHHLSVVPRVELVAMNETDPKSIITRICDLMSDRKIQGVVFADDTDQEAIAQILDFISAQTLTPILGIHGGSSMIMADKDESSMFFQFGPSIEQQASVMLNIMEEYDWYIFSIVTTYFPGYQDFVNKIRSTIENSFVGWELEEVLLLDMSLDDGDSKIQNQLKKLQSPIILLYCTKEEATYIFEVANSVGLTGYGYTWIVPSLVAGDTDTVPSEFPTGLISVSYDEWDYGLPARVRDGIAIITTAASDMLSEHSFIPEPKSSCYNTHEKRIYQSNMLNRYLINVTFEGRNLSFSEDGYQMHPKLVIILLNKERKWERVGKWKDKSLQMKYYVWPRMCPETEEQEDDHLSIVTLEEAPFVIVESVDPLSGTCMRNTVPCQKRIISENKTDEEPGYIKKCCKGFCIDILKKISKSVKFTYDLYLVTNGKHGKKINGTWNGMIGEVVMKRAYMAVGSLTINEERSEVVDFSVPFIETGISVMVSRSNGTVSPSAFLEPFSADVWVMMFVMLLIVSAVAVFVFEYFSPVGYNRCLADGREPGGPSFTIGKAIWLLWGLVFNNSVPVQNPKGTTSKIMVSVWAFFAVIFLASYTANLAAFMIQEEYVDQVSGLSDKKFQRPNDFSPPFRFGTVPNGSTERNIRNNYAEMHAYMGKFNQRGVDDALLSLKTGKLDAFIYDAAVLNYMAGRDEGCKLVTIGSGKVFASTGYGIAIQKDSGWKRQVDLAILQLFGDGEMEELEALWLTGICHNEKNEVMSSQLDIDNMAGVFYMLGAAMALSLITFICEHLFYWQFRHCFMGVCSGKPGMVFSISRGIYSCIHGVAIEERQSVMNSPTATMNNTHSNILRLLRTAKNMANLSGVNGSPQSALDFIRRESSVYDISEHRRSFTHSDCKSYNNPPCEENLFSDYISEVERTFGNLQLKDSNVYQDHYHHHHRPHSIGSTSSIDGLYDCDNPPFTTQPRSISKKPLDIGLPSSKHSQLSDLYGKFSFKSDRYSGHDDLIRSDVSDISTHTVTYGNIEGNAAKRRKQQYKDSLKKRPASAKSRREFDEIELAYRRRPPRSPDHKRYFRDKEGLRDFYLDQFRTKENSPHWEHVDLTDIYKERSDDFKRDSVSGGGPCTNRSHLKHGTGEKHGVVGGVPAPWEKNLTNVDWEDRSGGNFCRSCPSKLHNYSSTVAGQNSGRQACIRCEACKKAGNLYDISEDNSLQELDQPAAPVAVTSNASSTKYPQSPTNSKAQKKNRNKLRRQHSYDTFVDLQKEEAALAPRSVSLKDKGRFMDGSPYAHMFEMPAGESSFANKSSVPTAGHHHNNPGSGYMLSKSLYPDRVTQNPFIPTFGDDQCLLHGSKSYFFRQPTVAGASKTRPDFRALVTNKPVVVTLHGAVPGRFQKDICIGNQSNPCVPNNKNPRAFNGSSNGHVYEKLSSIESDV

In the case of `O=C(O)[C@H]1NCCN(C(=O)c2ccc3c(ccc4ccccc43)c2)[C@H]1C(=O)O` (racemic) [PPDA, (±)-cis-1-(Phenanthrene-2-ylcarbonyl)Piperazine-2,3-Dicarboxylic Acid], the “antagonism of NMDA-induced depolarizations” value with NMDA receptors (PPDA 5 μM, NMDA 50 μM, neonatal rat motoneurones) is 88%. In addition, the Kd at NMDA receptors (neonatal rat spinal cord, competitive antagonist, read-out: affinity (Kd), Schild analysis of NMDA-induced depolarizations) came out at 247 nM. Further, the “potency as antagonist of NMDA-induced depolarizations relative to CPP-ene” value in the test on NMDA receptors (spinal cord) was “as potent as CPP-ene”. Further, the “antagonism of AMPA-induced depolarizations” value in [1] is reported as 15%. The “antagonism of kainate-induced depolarizations” value in test [2] came to 21%. For the same molecule, the “effect on ACPD-induced depolarizations” value in [3] is listed as “no effect”. Besides, the Ki is 540 nM in test [4]; 7200 nM in test [5]; 390 nM in test [6]; 310 nM in [7]; 350 nM on NR1/NR2B [8]; 70 nM at NR1/NR2C [9]. Also, the Ki at NR1/NR2D [10] came out at 110 nM. The “inhibition of [3H]CNQX binding to native AMPA receptors” value with native AMPA receptors came to 44.6±1.3%. Further, the “inhibition of [3H]kainate binding” value in test [11] was determined as 9.3±6.7%.

With `N[C@H](CCCP(=O)(O)O)C(=O)O` [D-AP5], the Ki was 280 nM on NR1/NR2A [12], 460 nM at NR1/NR2B [13], 1640 nM on NR1/NR2C [14] and 3710 nM on NR1/NR2D [15].

For the molecule `O=C(O)C1NCCN(C(=O)c2ccc(-c3ccccc3)cc2)C1C(=O)O` (stereo not drawn) [PBPD, 1-(4-phenylbenzoyl)-piperazine-2,3-dicarboxylic acid, reference compound], the Ki at NR1/NR2A [16] was 15800 nM; at NR1/NR2B [8] (recombinant, NR1a co-expressed in Xenopus oocytes, mean +/- SEM, read-out: NR1/NR2B Ki) it was 5010 nM; on NR1/NR2C [9] (recombinant, NR1a co-expressed in Xenopus oocytes, mean +/- SEM, read-out: NR1/NR2C Ki), 8980 nM; at NR1/NR2D [10] (recombinant, NR1a co-expressed in Xenopus oocytes, mean +/- SEM, read-out: NR1/NR2D Ki) it was 4290 nM.

For the molecule `O=C(O)C1CN(CC=CP(=O)(O)O)CCN1` (stereo not drawn) [CPP-ene, 4-(3-phosphonoprop-2-enyl)piperazine-2-carboxylic acid], the Ki on NR1/NR2A [12] was 110 nM; on NR1/NR2B [13], 140 nM; at NR1/NR2C [14] it was 1460 nM; at NR1/NR2D [15], 1840 nM.
